This is an account of results in patent US9089586B2, “Levocarrimycin, pharmaceutical compositions, preparation methods and uses thereof” (SHENYANG TONGLIAN GROUP CO., LTD., priority 2010, dated 2015).

For experiment [1], the system named is urea plasma urealyticum (Uu). Kind of experiment: In vitro anti-urea plasma urealyticum MIC in U-PPLO. The class given is cell-based. Here is the method:
1. Test method: add U-PPLO 0.8 ml in sterile 12-pore cell culture plate (add 0.9 ml in bacteria liquid control pore and 1.0 ml in culture medium control pores).
3. Divide into 3 groups (100 μg/ml, 10 μg/ml and 1 μg/ml antibiotic stocksolution), Add experimental antibiotics (levocarrimycin in example 6 of the present invention, acetyl spiramycin, erythrocin and azithromycin) in each experimental pores with sterile Tip according to double degradation concentration gradient: 100 μl, 50 μl, 25 μl and 12.5 μl.
4. Blend the above pores evenly, seal the culture plate with an adhesive tape and then culture in 37° C. incubator.
5. Abserve and record the growth of Uu on 17-24 h after the test.

The subject of another experiment is Gonococcus (10). Kind of experiment: In vitro pharmacodynamics, clinical isolates, two-fold plate dilution. Format: cell-based. As to conditions: 10 clinical isolates of Gonococcus.
In a further experiment the test system is Staphylococcus aureus12. Briefly: In vivo pharmacodynamic: mice abdominal cavity infected, half protective dose. Conditions: 168 h; mice infected with Staphylococcus aureus12, challenging dose 4.8 × 10^4 CFU/0.5 ml/mouse, intragastric administration, fatality within seven days. How it is done: (§1) Test method: infectious bacteria liquid preparation: put the bacteria liquid stored in the −80° C. refrigerator into the room for about 1 h at room temperature, and respectively draw 0.1 ml bacteria liquid of streptococcus pneumonia, streptococcus pyogenes and enterococcus into 2 ml MH soup (add 10% inactivated horse serum); inoculate the 2 ml MH soup with 0.1 ml bacteria liquid of staphylococcus aureus according to the above method, place the liquid into 37° C. incubator for 18 h to get the original bacteria liquid, dilute the original bacteria liquid with 5% gastric mucin, take 100% lethal bacteria amount if animal gets infected as infectious bacteria liquid.
(§2) Oral administration is planned for clinical medication of levocarrimycin, thus intragastric administration is selected for levocarrimycin test. After intraperitoneal injection of 0.5 ml lethal bacterial amount to the mice' abdominal cavity, the mice appear following symptom, such as reduced activity, repose, hair became loose, and so on. Clyster with 0.2 ml for every mouse after infection 0.5-6 h, there is no adverse reaction. Observe animal fatality within seven days and calculate the half protective dose (EDO of drugs for infected mice and compare the protective effect of drugs througe Bliss order.

Experiment [2] concerns Streptococcus pneumonia57. The description is as above. Conditions: 168 h; mice infected with Streptococcus pneumonia57, challenging dose 8.8 × 10^4 CFU/0.5 ml/mouse, intragastric administration, fatality within seven days. Here is the method: as §1, §2
Experiment [3] has as its system Staphylococcus aureus16. The experiment is described as above. As to conditions: 168 h; mice infected with Staphylococcus aureus16, challenging dose 5.2 × 10^3 CFU/0.5 ml/mouse, intragastric administration, fatality within seven days. How it is done: as §1, §2
In experiment [4] the test system is Streptococcus pyogenes119. Described as above. As to conditions: 168 h; mice infected with Streptococcus pyogenes119, challenging dose 4.9 × 10^4 CFU/0.5 ml/mouse, intragastric administration, fatality within seven days. Here is the method: as §1, §2
In another experiment the test system is Enterococcus32. Briefly: MIC against the infecting test organism (Table 4). The class given is cell-based, Enterococcus.
Experiment [5] relates to Streptococcus pyogenes772. Briefly: MIC against the infecting test organism (Table 3). The class given is cell-based, Streptococcus pyogenes.
The subject of experiment [6] is Staphylococcus aureus16. Kind of experiment: MIC against the infecting test organism (Table 4). The class given is cell-based, Staphylococcus aureus.
The next experiment concerns Streptococcus pneumonia3. Kind of experiment: MIC against the infecting test organism (Table 3). Format: cell-based, Streptococcus pneumonia.
Experiment [7] relates to chlamydia pneumoniae CWL-029. Kind of experiment: In vitro anti-chlamydia MIC, HEp-2 cells, immunofluorescent staining of inclusions. The class given is cell-based. Conditions: Chlamydia pneumoniae CWL-029 in HEp-2 cells, 72 h.
For experiment [8], the system named is chlamydia trachomatis serotype D/UW-3/Cx. Briefly: In vitro anti-chlamydia MIC, McCoy cells, immunofluorescent staining of inclusions. Format: cell-based. As to conditions: Chlamydia trachomatis D/UW-3/Cx in McCoy cells, 48 h.
Experiment [9] deals with Streptococcus pneumonia57. Kind of experiment: MIC against the infecting test organism (Table 3). The class given is cell-based, Streptococcus pneumonia.
The test system of experiment [10] is Streptococcus pyogenes102. Briefly: MIC against the infecting test organism (Table 3). The class given is cell-based, Streptococcus pyogenes.
Experiment [11] concerns Streptococcus pyogenes119. Kind of experiment: MIC against the infecting test organism (Table 3). Format: cell-based, Streptococcus pyogenes.
Experiment [12] relates to chlamydia trachomatis serotype B/TW-5/OT. Briefly: In vitro anti-chlamydia MIC, McCoy cells, immunofluorescent staining of inclusions. Format: cell-based. As to conditions: Chlamydia trachomatis B/TW-5/OT in McCoy cells, 48 h.
The next experiment relates to Staphylococcus aureus76. Briefly: MIC against the infecting test organism (Table 4). The class given is cell-based, Staphylococcus aureus.

≈ marks a conversion by molar mass, not a printed value.

The term MIC denotes the lowest concentration found to suppress growth. The ED50 is the dose at which the effect has come halfway, by size or by number of responders. Lower therefore signals greater potency.

Regarding `CC[C@H]1OC(=O)[C@H](C)[C@@H](O[C@H]2C[C@@](C)(OC)[C@@H](O)[C@H](C)O2)[C@H](C)[C@@H](O[C@@H]2O[C@H](C)C[C@H](N(C)C)[C@H]2O)[C@](C)(O)C[C@@H](C)CN(C)[C@H](C)[C@@H](O)[C@]1(C)O` [Azithromycin], the MIC in [1] (final MIC (24 h), determined 4 times, 10^3 CCU/ml, read-out: MIC of anti-urea plasma urealyticum strains) was 0.025 to 0.125 µg/mL; against Gonococcus (10) it was 0.12 to 64 µg/mL (≈ 0.16 to 85.4 µM). The ED50 in the experiment on Staphylococcus aureus12 was determined as 217 mg/kg; in [2], 19.7 mg/kg; with Staphylococcus aureus16 [3] it was 75.8 mg/kg; in [4] it was 99 mg/kg.
With `CC[C@H]1OC(=O)[C@H](C)[C@@H](O[C@H]2C[C@@](C)(OC)[C@@H](O)[C@H](C)O2)[C@H](C)[C@@H](O[C@@H]2O[C@H](C)C[C@H](N(C)C)[C@H]2O)[C@](C)(O)C[C@@H](C)C(=O)[C@H](C)[C@@H](O)[C@]1(C)O` [Erythrocin], the anti-Uu function entry in experiment [1] (verbal comparison of the four antibiotics) was “the worst”. Further, the MIC against Gonococcus (10) lay in the range of 0.12 to 64 µg/mL (≈ 0.164 to 87.2 µM).
With Acetyl spiramycin, the minimum inhibitory concentration (MIC) in the experiment with Enterococcus32 was found to be 1 µg/mL; in [5], 0.25 µg/mL; against Staphylococcus aureus16 [6] it was 1 µg/mL; against Streptococcus pneumonia3, 0.5 µg/mL; in experiment [9], 1 µg/mL; in experiment [10], 0.5 µg/mL. Besides, the figures for the MIC (in [11]; against Staphylococcus aureus76) were 0.5 µg/mL and 1 µg/mL, respectively. Besides, the “Minimal inhibitory concentration (MIC)” value in experiment [7] stood at 0.5 µg/mL; in experiment [8], 2 µg/mL; in experiment [12], 4 µg/mL. In addition, the “MIC of anti-urea plasma urealyticum strains” value in experiment [1] (final MIC (24 h), determined 4 times, 10^3 CCU/ml) was determined as 0.5 µg/mL. Besides, the MIC scope with Gonococcus (10) is 0.12 to 64 µg/mL.
